Measured values: patent US20150038430A1, “THERAPEUTIC PEPTIDOMIMETIC MACROCYCLES” (AILERON Therapeutics, Inc., priority 2008, published 2015)

Columns and labels:
OVCAR8 = assay type: cell-based, human; conditions: 24 h
Method: (§1) Cell viability assays shown in FIGS. 34-52 were performed according to a similar protocol. Cells were split at optimal cell density a day prior to the initiation of the study. The next day, cells were washed twice in serum-free Opti-MEM media and 4000 cells/well were added to each well in a final volume of […] Opti-MEM. For serum-free experiments, macrocycles were diluted from 2 mM stocks (100% DMSO) in sterile water to prepare 400 μM working solutions. A 40 μM solution was then generated by ten-fold dilution in assay buffer. The macrocycle and controls were then serially diluted two-fold in assay buffer in dosing plates to provide concentrations between 1.2 and 40 μM, respectively. For experiments in 2% human serum, macrocycles were diluted from 10 mM stocks (100% DMSO) in sterile water to prepare 1 mM working solutions. A 100 μM solution was generated by ten-fold dilution in assay buffer. The macrocycles and controls were then serially diluted two-fold in assay buffer in dosing plates to provide concentrations between 3 and 100 μM, respectively. 50 μl of each dilution was then added to the appropriate wells of the test plate to achieve final concentrations of the macrocycle between 0.6 to 20 μM (for serum free experiment) or 1.5 to 50 μM (for 2% serum experiment), respectively. Controls included wells without macrocycles containing the same concentration of DMSO as the macrocycle-containing wells, wells containing 0.1% Triton X-100, and wells containing no cells. Plates were incubated for 24 hours at 37° C. in a humidified 5% CO2 atmosphere. At the end of a 24 hr incubation period, a CellTiter-Glo Luminescent Cell Viability Assay was performed according to manufacturer's instructions (Promega, catalog #G7571) and the luminescence was measured using a BIO-TEK synergy HT Plate reader. Values were plotted as percent viable, i.e. as a percentage of the negative control value (derived from cells exposed to DMSO only). All assays were performed in duplicate.
(§2) The following tables summarize the EC50 values (μM) observed with peptidomimetic macrocycles of the invention in various cell lines: […]

DHL-6 = assay type: cell-based, human; conditions: 24 h
Method: as §1, §2

Raji = assay type: cell-based, human; conditions: 24 h
Method: as §1, §2

A375 = assay type: cell-based, human; conditions: 24 h
Method: as §1, §2

SEMK2 = assay type: cell-based, human; conditions: 24 h
Method: as §1, §2

RS4;11 = assay type: cell-based, human; conditions: 24 h
Method: as §1, §2

NCI-H82 (SCLC-MCL1+) = assay type: cell-based, human; conditions: 24 h
Method: as §1, §2

Jurkat = assay type: cell-based, human; conditions: 24 h
Method: as §1, §2

Molt-4 = assay type: cell-based, human; conditions: 24 h
Method: as §1, §2

PC3 = assay type: cell-based, human; conditions: 24 h
Method: as §1, §2

MDA-MB231-Met = assay type: cell-based, human; conditions: 24 h
Method: as §1, §2

MM1S = assay type: cell-based, human; conditions: 24 h
Method: as §1, §2

BAX = target: T1, BAX (Homo sapiens, UniProt Q07812); assay: Immunoprecipitation in MM1S cell lysates; assay type: binding; conditions: multiple myeloma (MM1S) cell lysates
T1 construct: endogenous in cells; host or cells: MM1S multiple myeloma cells (lysate)
Method: It is possible to measure binding of peptides or peptidomimetic macrocycles to their natural acceptors in cell lysates or intact cells by immunoprecipitation and pull-down experiments. For example, intact cells are incubated with fluoresceinated (FITC-labeled) or biotinylated compounds for 4 hrs in the absence of serum, followed by serum replacement and further incubation that ranges from 4-18 hrs. Alternatively, cells can be incubated for the duration of the experiment in Opti-MEM (Invitrogen). Cells are then pelleted and incubated in lysis buffer (50 mM Tris [pH 7.6], 150 mM NaCl, 1% CHAPS and protease inhibitor cocktail) for 10 minutes at 4° C. 1% NP-40 or Triton X-100 may be used instead of CHAPS. Extracts are centrifuged at 14,000 rpm for 15 minutes and supernatants collected and incubated with 10 μl goat anti-FITC antibody or streptavidin-coated beads for 2 hrs, rotating at 4° C. followed by further 2 hrs incubation at 4° C. with protein A/G Sepharose (50 μl of 50% bead slurry).). No secondary step is necessary if using streptavidin beads to pull down biotinylated compounds. […]

Bcl-xL = Bcl-xL (Homo sapiens, UniProt Q07817); assay: Protein-ligand binding experiment (SEC-LC-MS); conditions: 1 μM macrocycle plus 5 μM Bcl-xL, 60 min room temperature
Method: Protein-ligand binding experiments were conducted according to the following representative procedure outlined for a system-wide control experiment using 1 μM SP-4 plus 5 μM Bcl-xL. A 1 μl DMSO aliquot of a 40 μM stock solution of peptidomimetic macrocycle was dissolved in 19 μl of PBS (Phosphate-buffered saline: 50 mM, pH 7.5 Phosphate buffer containing 150 mM NaCl). The resulting solution was mixed by repeated pipetting and clarified by centrifugation at 10 000 g for 10 min. To a 4 μl aliquot of the resulting supernatant was added 4 μl of 10 μM BCL-xL in PBS. Each 8.0 μl experimental sample thus contained 40 pmol (1.5 μg) of protein at 5.0 μM concentration in PBS plus 1 μM peptidomimetic macrocycle and 2.5% DMSO. Duplicate samples thus prepared for each concentration point were incubated for 60 min at room temperature, and then chilled to 4° C. prior to size-exclusion chromatography-LC-MS analysis of 5.0 μL injections. Samples containing a target protein, protein-ligand complexes, and unbound compounds were injected onto an SEC column, where the complexes were separated from non-binding component by a rapid SEC step. The SEC column eluate was monitored using UV detectors to confirm that the early-eluting protein fraction, which elutes in the void volume of the SEC column, was well resolved from unbound components that are retained on the column. […]

Bcl-xL, sequence (Q07817 whole entry): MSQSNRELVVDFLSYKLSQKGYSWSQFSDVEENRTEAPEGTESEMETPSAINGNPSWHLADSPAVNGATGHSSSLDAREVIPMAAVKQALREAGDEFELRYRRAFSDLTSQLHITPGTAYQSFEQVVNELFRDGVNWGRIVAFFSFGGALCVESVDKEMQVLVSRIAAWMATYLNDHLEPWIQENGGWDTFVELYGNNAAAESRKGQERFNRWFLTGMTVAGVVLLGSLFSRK
T1 sequence (Q07812 whole entry): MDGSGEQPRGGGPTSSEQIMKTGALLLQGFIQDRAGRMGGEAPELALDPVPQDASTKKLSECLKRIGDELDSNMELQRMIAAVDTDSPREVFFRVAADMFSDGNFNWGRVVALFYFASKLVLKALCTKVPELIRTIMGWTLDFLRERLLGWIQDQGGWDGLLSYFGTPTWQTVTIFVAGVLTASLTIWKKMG

Question: What does the source list for CC[C@H](C)[C@H](NC(C)=O)C(=O)N[C@@H](Cc1c[nH]c2ccccc12)C(=O)N[C@H](C(=O)N[C@@H](C)C(=O)N[C@@H](CCC(N)=O)C(=O)N[C@@H](CCC(=O)O)C(=O)N[C@@H](CC(C)C)C(=O)N[C@@H](CCCNC(=N)N)C(=O)NC1(C)CCCC=CCCCC(C)(C(=O)N[C@@H](Cc2ccccc2)C(=O)N[C@@H](CC(N)=O)C(=O)N[C@@H](C)C(=O)N[C@@H](Cc2ccc(O)cc2)C(=O)N[C@@H](Cc2ccc(O)cc2)C(=O)N[C@@H](C)C(=O)N[C@@H](CCCNC(=N)N)C(=O)N[C@@H](CCCNC(=N)N)C(N)=O)NC(=O)[C@H](CC(=O)O)NC(=O)CNC(=O)[C@H]([C@@H](C)CC)NC1=O)[C@@H](C)CC (some centres unmarked) [SP-4]?
Answer: EC50 (OVCAR8): 20 µM; EC50 (DHL-6): 3.8 µM; EC50 (Raji): 9 µM; EC50 (A375): 8 µM; EC50 (SEMK2): 4 µM; EC50 (RS4;11): 10 µM; EC50 (NCI-H82 (SCLC-MCL1+)): 4.9 µM; EC50 (Jurkat): 1.6 µM; EC50 (Molt-4): 2.2 µM; EC50 (PC3): 5 µM; EC50 (MDA-MB231-Met): 8.5 µM; EC50 (MM1S): 4.9 µM; binding to pro-apoptotic target protein BAX (BAX): sequence-specific and structure-specific binding; detection of protein-ligand complex with Bcl-xL (Bcl-xL): detection of the protein-ligand complex
